Data reported in article PMC10363032 (Cancer Chemotherapy and Pharmacology, 2023).

Assay: plasma pharmacokinetics of probe cocktail substrates and metabolites with and without adavosertib in patients
Conditions: for Vd/F: Mean Vz/F, L (SD); for increase in Cmax on adavosertib co-administration / increase in exposure (AUC0–12) on adavosertib co-administration / increase in exposure (AUC0–t) on adavosertib co-administration: adavosertib 225 mg bid vs cocktail alone; for Point estimates of the geometric LS mean ratios S + AD/S, % (90% CI): AUC / Point estimates of the geometric LS mean ratios S + AD/S, % (90% CI): AUC0–t / Point estimates of the geometric LS mean ratios S + AD/S, % (90% CI): Cmax: substrate + adavosertib 225 mg bid vs substrate alone
Procedure: This sampling period was selected based on the half-lives of the probe substrates.
Plasma concentrations for caffeine, paraxanthine, omeprazole, 5-HO, midazolam, and 1ʹ-HM were all determined by high-performance liquid chromatography–tandem mass spectrometry (HPLC–MS/MS) at Labcorp Bioanalytical Laboratories (Madison, WI, USA).
Plasma concentrations of caffeine and paraxanthine collected with K2EDTA as anticoagulant were determined by HPLC–MS/MS detection simultaneously. The standard curves of caffeine and paraxanthine both ranged from 25.0 to 20,000 ng/mL. […] The lower limit of quantification (LLOQ) was 25.0 ng/mL for caffeine and paraxanthine.
Plasma concentrations of omeprazole and 5-HO were collected with lithium heparin as anticoagulant and were determined by HPLC–MS/MS detection simultaneously. […] The LLOQ was 20.0 nM for omeprazole and 5-HO.
Plasma concentrations of midazolam and 1ʹ-HM were collected with K2EDTA as anticoagulant and were determined by HPLC–MS/MS detection simultaneously. The standard curves of midazolam and 1ʹ-HM both ranged from 0.100 to 100 ng/mL. […] The LLOQ was 0.1 ng/mL for midazolam and 1ʹ-HM.
PK parameters were derived using non-compartmental methods with Phoenix® WinNonlin® version 6.4 (Certara, LP, Princeton, NJ, USA). All descriptive and inferential statistical computations were performed using SAS® version 9.1 (SAS Institute, Cary, NC, USA).

[1] = − AD (cocktail alone, period 1)

Cn1c(=O)c2c(ncn2C)n(C)c1=O [Caffeine, caffeine, reference compound]
Mean CL/F, L/h (SD) (human, in vivo): 5.7 (2.5) L/h
Mean t½ h (SD) (human, in vivo): 6.4 (3.8) h
Median tmax, h (range) (human, in vivo): 0.5 (0.3–3.0) h
Vd/F (human, in vivo): 39.3 L

COc1ccc2[nH]c([S+]([O-])Cc3ncc(C)c(OC)c3C)nc2c1 (stereo not shown) [Omeprazole, omeprazole, reference compound]
Mean CL/F, L/h (SD) (human, in vivo): 13.3 (10.5) L/h
Median tmax, h (range) (human, in vivo): 3.0 (0.7–6.0) h
Vd/F (human, in vivo): 28.3 L
half-life (human, in vivo, Mean t½ h (SD)): 2 h

Cc1ncc2n1-c1ccc(Cl)cc1C(c1ccccc1F)=NC2 [Midazolam, midazolam, reference compound]
increase in Cmax on adavosertib co-administration: 39%
increase in exposure (AUC0–12) on adavosertib co-administration: 55%
increase in exposure (AUC0–t) on adavosertib co-administration: 55%
half-life (human, in vivo): 5.5 h
Vd/F (human, in vivo, + AD (adavosertib 225 mg bid, period 2)): 364 L
Vd/F (human, in vivo, − AD (cocktail alone, period 1)): 410 L
Point estimates of the geometric LS mean ratios S + AD/S, % (90% CI): AUC: 155.3 (138.6–173.9) %
Point estimates of the geometric LS mean ratios S + AD/S, % (90% CI): AUC0–t: 155.2 (140.5–171.5) %
Point estimates of the geometric LS mean ratios S + AD/S, % (90% CI): Cmax: 138.5 (118.9–161.3) %
Mean CL/F, L/h (SD) [1]: 59.0 (34.3) L/h
Median tmax, h (range) [1]: 0.5 (0.2–1.0) h

OCc1ncc2n1-c1ccc(Cl)cc1C(c1ccccc1F)=NC2 [1ʹ-HM, 1ʹ-hydroxymidazolam]
increase in Cmax on adavosertib co-administration: 33%
increase in exposure (AUC0–12) on adavosertib co-administration: 54%
increase in exposure (AUC0–t) on adavosertib co-administration: 58%
Point estimates of the geometric LS mean ratios S + AD/S, % (90% CI): AUC: 153.5 (131.0–179.8) %
Point estimates of the geometric LS mean ratios S + AD/S, % (90% CI): AUC0–t: 158.2 (139.1–180.0) %
Point estimates of the geometric LS mean ratios S + AD/S, % (90% CI): Cmax: 133.4 (106.5–167.1) %
Mean MR (metabolic ratio in relation to parent compound), AUC (− AD): 0.41
Mean MR (metabolic ratio in relation to parent compound), AUC0–t (− AD): 0.43
Mean MR (metabolic ratio in relation to parent compound), Cmax (− AD): 0.47
Mean t½ h (SD) [1]: 7.2 (6.1) h
Median tmax, h (range) [1]: 0.5 (0.3–2.1) h

Cn1c(=O)[nH]c2ncn(C)c2c1=O [Paraxanthine, paraxanthine]
Mean MR (metabolic ratio in relation to parent compound), AUC (human, in vivo): 0.65
Mean MR (metabolic ratio in relation to parent compound), AUC0–t (human, in vivo): 0.54
Mean MR (metabolic ratio in relation to parent compound), Cmax (human, in vivo): 0.23
Median tmax, h (range) (human, in vivo): 8.0 (4.0–11.8) h
half-life (human, in vivo, Mean t½ h (SD)): 7 h

COc1ccc2nc([S+]([O-])Cc3ncc(CO)c(OC)c3C)[nH]c2c1 (stereo not shown) [5-HO, 5-hydroxyomeprazole]
Mean MR (metabolic ratio in relation to parent compound), AUC (human, in vivo): 0.50
Mean MR (metabolic ratio in relation to parent compound), AUC0–t (human, in vivo): 0.73
Mean MR (metabolic ratio in relation to parent compound), Cmax (human, in vivo): 0.53
Mean t½ h (SD) (human, in vivo): 2.7 (1.7) h
Median tmax, h (range) (human, in vivo): 3.0 (0.7–6.0) h
